Patent publication US20240327385A1, “SUBSTITUTED PIPERIDINE COMPOUNDS AS RENIN INHIBITORS” (priority 2023, published 2024)

What follows are compounds tested against human recombinant renin (Homo sapiens (Human), UniProt P00797) (assay: human renin activity inhibition (SensoLyte 520 Renin Assay Kit Fluorimetric)). Details: 30 min preincubation at 37° C., fluorescence at 530 nm after 15 min at 37° C., read-out: IC50 (nM), inhibitory effect on human renin activity.
Assay type: biochemical
Experimental: The exemplary compounds of the disclosure were tested for their inhibitory effects on human renin activity, using a commercially available renin assay kit (SensoLyte® 520 Renin Assay Kit Fluorimetric), following the manufacture's manual.
Briefly, human recombinant renin (from the kit) was incubated with the compound of the disclosure or buffer for 30 min at 37° C. before substrate addition. Fluorescence intensity was measured at 530 nm after an incubation of 15 min at 37° C. Data was analyzed by Prism and fitted into a sigmodal curve for IC50 calculation.

Sequence of human recombinant renin (P00797 67-406): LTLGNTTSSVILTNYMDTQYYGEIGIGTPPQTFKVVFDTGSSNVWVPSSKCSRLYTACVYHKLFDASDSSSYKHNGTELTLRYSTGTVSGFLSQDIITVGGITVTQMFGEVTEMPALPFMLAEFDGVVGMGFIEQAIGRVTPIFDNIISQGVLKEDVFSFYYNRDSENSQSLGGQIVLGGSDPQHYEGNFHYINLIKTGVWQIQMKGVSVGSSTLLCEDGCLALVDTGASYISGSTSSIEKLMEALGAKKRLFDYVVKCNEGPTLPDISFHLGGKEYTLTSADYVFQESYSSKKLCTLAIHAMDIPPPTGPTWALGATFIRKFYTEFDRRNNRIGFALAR

Row | IC50 [nM] | Structure (SMILES)
1 | < 250 | CO[C@H]1C[C@H](Nc2cc(C3CC3)nnc2C(=O)N(CC(C)C)[C@@H]2CNC[C@H](C(=O)N3CCOC[C@@H]3C)C2)C1 [Compound 33, (3S)—{N-(2-methylpropyl), N-{6-cyclopropyl-4-[3-(trans-methoxy)cyclobutyl]amino}pyridazine-3-carbonyl}amino-(5R)-[(3S)-3-methylmorpholine-4-carbonyl]-piperidine]
2 | < 50 | CC(C)CN(C(=O)c1ncc(C2CC2)cc1NC1COC1)[C@H]1CCCNC1 [Compound 36, (3S)—{N-(2-methylpropyl), N-[5-cyclopropyl-3-(oxetan-3-yl)amino]pyridine-2-carbonyl}amino-piperidine]
3 | < 10 | CC(C)CN(C(=O)c1ncc(C(F)(F)F)cc1NC1COC1)[C@@H]1CNC[C@H](C(=O)N2CCOCC2)C1 [Compound 43, (3S)—{N-(2-methylpropyl), N-[5-trifluoromethyl-3-(oxetan-3-yl)amino]pyridine-2-carbonyl}amino-(5R)-(morpholine-N-carbonyl)-piperidine]
4 | < 250 | CO[C@H]1C[C@H](Nc2nc(C3CC3)ncc2C(=O)N(CC(C)C)[C@@H]2CNC[C@H](C(=O)N3CCOC[C@@H]3C)C2)C1 [Compound 46, (3S)—{N-(2-methylpropyl), N-{2-cyclopropyl-3-[3-(trans-methoxy)cyclobutyl]amino}pyrimidine-5-carbonyl}amino-(5R)-[(3S)-methylmorpholine-N-carbonyl]-piperidine]

The remaining lines, values behind:

Row | Structure (SMILES) | IC50 [nM]
5 | CO[C@H]1C[C@H](Nc2cc(C3CC3)cnc2C(=O)N(CC(C)C)[C@@H]2CNC[C@H](CO)C2)C1 [Compound 35, (3S)—{N-(2-methylpropyl), N-{5-cyclopropyl-3-[3-(trans-methoxy)cyclobutyl]amino}pyridine-2-carbonyl}amino-(5R)-hydroxymethyl-piperidine] | < 20
6 | CO[C@H]1C[C@H](Nc2cc(C3CC3)cnc2C(=O)N(CC(C)C)[C@@H]2CNC[C@H](c3ncon3)C2)C1 [Compound 39, (3S)—{N-(2-methylpropyl), N-{5-cyclopropyl-3-[3-(trans-methoxy)cyclobutyl]amino}pyridine-2-carbonyl}amino-(5R)-(1,2,4-oxadiazol-3-yl)-piperidine] | < 10
7 | CO[C@H]1C[C@H](Nc2cc(C3CC3)cnc2C(=O)N(CC(C)C)[C@@H]2CNC[C@H](c3nnco3)C2)C1 [Compound 40, (3S)—{N-(2-methylpropyl), N-{5-cyclopropyl-3-[3-(trans-methoxy)cyclobutyl]amino}pyridine-2-carbonyl}amino-(5R)-(1,3,4-oxadiazol-2-yl)-piperidine] | < 10
8 | CO[C@H]1C[C@H](Nc2cc(C3CC3)cnc2C(=O)N(CC2CC2)[C@@H]2CNC[C@H](c3nnc(C)o3)C2)C1 [Compound 41] | < 10
9 | CC(C)CN(C(=O)c1ncc(C2CC2)cc1NC1COC1)[C@@H]1CNC[C@H](c2ncon2)C1 [Compound 42, (3S)—{N-(2-methylpropyl), N-[5-cyclopropyl-3-(oxetan-3-yl)amino]pyridine-2-carbonyl}amino-(5R)-(1,2,4-oxadiazol-3-yl)-piperidine] | < 30
10 | [2H]C([2H])([2H])O[C@H]1C[C@H](Nc2cc(C3CC3)cnc2C(=O)N(CC(C)C)[C@@H]2CNC[C@H](c3nnco3)C2)C1 [Compound 45, (3S)—{N-(2-methylpropyl), N-{5-cyclopropyl-3-[3-(trans-methoxy-d3)cyclobutyl]amino}pyridine-2-carbonyl}amino-(5R)-(1,3,4-oxadiazol-2-yl)-piperidine] | < 10
